According to publication PMC7182039 (Journal of medicinal chemistry, 2020):

Legend:
[1] = In vitro metabolic stability in human liver microsomes; assay type: in vitro ADME; details: for h CLint: 37 °C, 0.4 mg/mL protein, NADPH
[2] = Kinetic solubility by nephelometry; assay type: physicochemical; details: kinetic solubility, 1% DMSO, 30 min; for sol2.0: 0.01 M HCl (approx. pH 2.0); for sol6.5: pH 6.5 phosphate buffer
[3] = In vitro metabolic stability in mouse liver microsomes; assay type: in vitro ADME; details: for m CLint: 37 °C, 0.4 mg/mL protein, NADPH

| SMILES | h CLint [1] | sol2.0 [2] | sol6.5 [2] | m CLint [3] | conversion to 2 in human liver microsomes [1] | conversion to 2 in mouse liver microsomes [3] |
| --- | --- | --- | --- | --- | --- | --- |
| O=C(O)c1cccc([C@H]2CC[C@]3(CC2)OOC2(O3)C3CC4CC(C3)CC2C4)c1 (stereo partly drawn) [Compound 4] | 12 μL/(min mg) protein | <1.6/<1.6 μg/mL | <1.6/<1.6 μg/mL | 30 μL/(min mg) protein |  |  |
| O=C(O)c1cc([C@H]2CC[C@]3(CC2)OOC2(O3)C3CC4CC(C3)CC2C4)ccc1O (stereo partly drawn) [Compound 5, 5-(Dispiro[adamantane-2,3′ -[1,2,4]trioxolane-5′,1″-cyclohexan]-4″-yl)-2-hydroxybenzoic acid] | 108 μL/(min mg) protein |  |  | 20 μL/(min mg) protein |  |  |
| O=C(O)COc1ccc([C@H]2CC[C@]3(CC2)OOC2(O3)C3CC4CC(C3)CC2C4)cc1C(=O)O (stereo partly drawn) [Compound 6, cis-Adamantane-2-spiro-3′−8′-[3-carboxy-4-(carboxymethoxy)-phenyl]-1′,2′,4′-trioxaspiro[4.5]decane] | < 7 μL/(min mg) protein |  |  | 8 μL/(min mg) protein |  |  |
| O=C(O)COc1c(Cl)cc([C@H]2CC[C@]3(CC2)OOC2(O3)C3CC4CC(C3)CC2C4)cc1Cl (stereo partly drawn) [Compound 8, cis-Adamantane-2-spiro-3′ −8′-[3,5-dichloro-4-(carboxymethoxy)phenyl]-1′,2′,4′-trioxaspiro[4.5]decan] |  |  | 3.1 to 6.3 µg/mL |  |  |  |
| O=C(O)CCCOc1ccc([C@H]2CC[C@]3(CC2)OOC2(O3)C3CC4CC(C3)CC2C4)cc1 (stereo partly drawn) [Compound 9, cis-Adamantane-2-spiro-3′−8′-[4-(carboxypropoxy)-phenyl]-1′,2′,4′-trioxaspiro[4.5]decane] | < 7 μL/(min mg) protein |  |  | 8 μL/(min mg) protein |  |  |
| O=C(O)CCCCOc1ccc([C@H]2CC[C@]3(CC2)OOC2(O3)C3CC4CC(C3)CC2C4)cc1 (stereo partly drawn) [Compound 10, cis-Adamantane-2-spiro-3′−8′-[4-(carboxybutoxy)phenyl]-1′,2′,4′-trioxaspiro[4.5]decan] | < 7 μL/(min mg) protein | <1.6/<1.6 μg/mL | <1.6/<1.6 μg/mL | 13 μL/(min mg) protein |  |  |
| CC(C)(Oc1ccc([C@H]2CC[C@]3(CC2)OOC2(O3)C3CC4CC(C3)CC2C4)cc1)C(=O)O (stereo partly drawn) [Compound 11] | <7/7 μL/(min mg) protein |  | 3.1 to 6.3 µg/mL | <7/7 μL/(min mg) protein |  |  |
| CCOC(=O)COc1ccc([C@H]2CC[C@]3(CC2)OOC2(O3)C3CC4CC(C3)CC2C4)cc1 (stereo partly drawn) [Compound 12] |  |  |  |  | rapidly converted to 2 | rapidly converted to 2 |
| CS(=O)(=O)NC(=O)COc1ccc([C@H]2CC[C@]3(CC2)OOC2(O3)C3CC4CC(C3)CC2C4)cc1 (stereo partly drawn) [Compound 13, cis-Adamantane-2-spiro-3′−8′-[4-[2-[methylsulfonamino]-2-oxoethoxy]phenyl]-1′,2′,4′-trioxaspiro[4.5]decane] | < 7 μL/(min mg) protein |  | 6.3 to 12.5 µg/mL | 12 μL/(min mg) protein |  |  |
| O=C([O-])C1CCN(CCOc2ccc([C@H]3CC[C@]4(CC3)OOC3(O4)C4CC5CC(C4)CC3C5)cc2)CC1.[Na+] (stereo partly drawn) [Compound 15] | < 7 μL/(min mg) protein | 3.1 to 6.3 µg/mL | < 1.6 µg/mL | 9 μL/(min mg) protein |  |  |
| CS(=O)(=O)O.O=C(O)C1CN(Cc2ccc([C@H]3CC[C@]4(CC3)OOC3(O4)C4CC5CC(C4)CC3C5)cc2)C1 (stereo partly drawn) [Compound 18, cis-Adamantane-2-spiro-3′−8′-[4-((3-(carbonyi)azetidin-1-yl)-methyi)phenyi]-1′,2′,4′-trioxaspiro[4.5]decane mesyiate] | 7 μL/(min mg) protein | 6.3 to 12.5 µg/mL | < 1.6 µg/mL | 10 μL/(min mg) protein |  |  |
| O=C(O)COc1ccc([C@H]2CC[C@]3(CC2)OOC2(O3)C3CC4CC2CC(C3)C4(F)F)cc1 (stereo partly drawn) [Compound 19, cis-6,6-Difluoroadamantane-2-spiro-3′−8′-[4-(carboxymethoxy)-phenyl]-1′,2′,4′ -trioxaspiro[4.5]decane] | 23 μL/(min mg) protein |  | 12.5 to 25 µg/mL | 130 μL/(min mg) protein |  |  |
| O=C(O)COc1ccc([C@H]2CC[C@]3(CC2)OOC2(O3)C3CC4CC2CC(C3)C4=O)cc1 (stereo partly drawn) [Compound 20, cis-6-Oxoadamantane-2-spiro-3′−8′-[4-(carboxymethoxy)-phenyl]-1′,2′,4′-trioxaspiro[4.5]decane] |  |  | 50 to 100 µg/mL |  |  |  |
| O=C(O)COc1ccc([C@H]2CC[C@]3(CC2)OOC2(O3)C3CC4CC2CC(C3)C4O)cc1 (stereo partly drawn) [Compound 21, cis-6-Hydroxyadamantane-2-spiro-3′−8′-[4-(carboxymethoxy)-phenyl]-1′,2′,4′-trioxaspiro[4.5]decane] | <7/<7 μL/(min mg) protein |  | 25 to 50 µg/mL | <7/<7 μL/(min mg) protein |  |  |
| CC(=O)NC1C2CC3CC1CC(C2)C31OO[C@]2(CC[C@@H](c3ccc(OCC(=O)O)cc3)CC2)O1 (stereo partly drawn) [Compound 22, cis-6-Acetamidoadamantane-2-spiro-3′−8′-[4-(carboxymethoxy)phenyl]-1′,2′,4′-trioxaspiro[4.5]decane] | 10 μL/(min mg) protein | 3.1 to 6.3 µg/mL | 12.5 to 25 µg/mL | < 7 μL/(min mg) protein |  |  |
| CS(=O)(=O)O.NC1C2CC3CC1CC(C2)C31OO[C@]2(CC[C@@H](c3ccc(OCC(=O)O)cc3)CC2)O1 (stereo partly drawn) [Compound 23, cis-6-Aminoadamantane-2-spiro-3′−8′-[4-(carboxymethoxy)-phenyl]-1′,2′,4′-trioxaspiro[4.5]decane mesylate] | 13 μL/(min mg) protein | 6.3 to 12.5 µg/mL | < 1.6 µg/mL | 8 μL/(min mg) protein |  |  |
| CS(=O)(=O)O.O=C(O)COc1ccc([C@H]2CC[C@]3(CC2)OOC2(O3)C3CC4CC2CC(C3)N4)cc1 (stereo partly drawn) [Compound 24, cis-6-Azaadamantane-2-spiro-3′−8 ′-[4-(carboxymethoxy)-phenyl]-1′,2′,4′-trioxaspiro[4.5]decane mesylate] | 35 μL/(min mg) protein | 3.1 to 6.3 µg/mL | < 1.6 µg/mL | 27 μL/(min mg) protein |  |  |
| CS(=O)(=O)O.CS(=O)(=O)O.O=C(O)CNCc1ccc([C@H]2CC[C@]3(CC2)OOC2(O3)C3CC4CC2CC(C3)N4)cc1 (stereo partly drawn) [Compound 25, cis-6-Azaadamantane-2-spiro-3′−8′-[4-[[(carboxymethyl)-amino]methyl]phenyl]-1′,2′,4′-trioxaspiro[4.5]decane mesylate] | <7/<7 μL/(min mg) protein | > 100 µg/mL | 50 to 100 µg/mL | <7/<7 μL/(min mg) protein |  |  |
